Data as given in ChEMBL document CHEMBL4418278, “Serine racemase inhibitor” (2014).

Columns and labels:
[1] = biological target: T1, Serine racemase (Homo sapiens) (UniProt Q9GZT4); experiment: Inhibition of recombinant human SRR expressed in Escherichia coli assessed as reduction in conversion of L-serine to D-serine at 1 mM incubated for => 8 hrs in presence of PLP and recombinant D-serine dehydratase 1 by spectrophotometry relative to control
T1 sequence (whole entry): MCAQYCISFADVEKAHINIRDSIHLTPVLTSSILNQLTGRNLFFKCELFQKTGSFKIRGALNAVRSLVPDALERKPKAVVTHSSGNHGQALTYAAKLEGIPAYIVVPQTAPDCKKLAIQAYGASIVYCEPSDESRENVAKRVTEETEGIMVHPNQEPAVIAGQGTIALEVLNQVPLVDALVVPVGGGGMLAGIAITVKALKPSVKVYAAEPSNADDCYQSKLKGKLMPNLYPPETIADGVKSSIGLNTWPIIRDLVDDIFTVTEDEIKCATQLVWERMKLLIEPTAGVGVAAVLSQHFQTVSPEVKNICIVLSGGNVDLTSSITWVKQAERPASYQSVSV

[2] = biological target: T1, Serine racemase (Homo sapiens); experiment: Inhibition of recombinant human SRR expressed in Escherichia coli assessed as reduction in conversion of L-serine to D-serine at 0.1 mM incubated for => 8 hrs in presence of PLP and recombinant D-serine dehydratase 1 by spectrophotometry relative to control

SMILES	inhibition [1]	inhibition [2]
COc1ccc(C)cc1NC(=S)NCCNS(=O)(=O)c1ccc(C)cc1	63%	
Cc1ccc(S(=O)(=O)NCCNC(=S)Nc2ccccc2Cl)cc1	69%	
Cc1ccc(S(=O)(=O)Nc2ccccc2NC(=O)Nc2ccc(F)cc2)cc1	54%	
COCCCNC(=S)NCCNS(=O)(=O)c1ccc(C)cc1	86%	
Cc1ccc(S(=O)(=O)NCC(=O)N[C@@H](C)c2ccccc2)cc1		86%
Cc1ccc(/C=C/C(=O)NC(=S)NNC(=O)Cc2cccs2)cc1	24%	
Cc1ccc(S(=O)(=O)Nc2ccccc2NC(=O)Nc2ccc(Cl)c(Cl)c2)cc1	49%	
COc1ccc(/C=C/C(=O)NC(=S)NNC(=O)Cc2cccs2)c(OC)c1	27%	
Cc1ccc(S(=O)(=O)NCCNC(=O)NS(=O)(=O)c2ccccc2C)cc1	62%	
Cc1ccc(S(=O)(=O)NCCNC(=O)Nc2ccccc2)cc1	79%	
O=C(/C=C/c1cc(Br)cc(Br)c1)NC(=S)NNC(=O)Cc1cccs1	28%	
O=C(/C=C/c1c(Cl)cc(Cl)cc1Cl)NC(=S)NNC(=O)Cc1cccs1	33%	
Cc1ccc(/C=C/S(=O)(=O)NCC(=O)Nc2ccc(OCc3ccccc3)cc2)cc1		63%
O=C(/C=C/c1ccc(C(F)(F)F)cc1)NC(=S)NNC(=O)Cc1cccs1	44%	
O=C(/C=C/c1ccc(Cl)cc1)NC(=S)NNC(=O)Cc1cccs1	23%	
O=C(/C=C/c1cc(Br)cc(Br)c1)NC(=S)NNC(=O)CCc1ccccc1	31%	
COc1ccc(NC(=O)CNC(=O)COc2ccccc2)c(C)c1	62%	87%
O=C(CNS(=O)(=O)Cc1ccccc1)Nc1c(F)cccc1F		77%
O=C(/C=C/c1cc(Br)cc(Br)c1)NC(=S)NNC(=O)Cc1ccccc1	20%	
O=C(/C=C/c1ccc(F)cc1)NC(=S)NNC(=O)c1cccs1	46%	
Cc1ccc(S(=O)(=O)NCCNC(=S)Nc2ccccc2C)cc1	58%	
O=C(/C=C/c1c(F)cc(F)cc1F)NC(=S)NNC(=O)Cc1ccccc1	33%	

SMILES	inhibition [1]	inhibition [2]
Cc1cccc(CC(=O)NNC(=S)NC(=O)Cc2ccccc2)c1	45%	
Cc1ccc(S(=O)(=O)NCC(=O)Nc2cccc(Br)c2)cc1		52%
Cc1ccc(S(=O)(=O)NCCNC(=O)Nc2ccc(F)cc2)cc1	76%	
O=C(Cc1ccc(F)cc1)NNC(=S)NC(=O)Cc1ccc(F)cc1		67%
COc1cccc(OC)c1/C=C/C(=O)NC(=S)NNC(=O)c1cccs1	31%	
O=C(/C=C/c1ccc([N+](=O)[O-])cc1)NC(=S)NNC(=O)Cc1cccs1	35%	
Cc1ccc(S(=O)(=O)NCC(=O)Nc2ccc(OCc3ccccc3)cc2)cc1		56%
Cc1cccc(CC(=O)NNC(=S)NC(=O)/C=C/c2cc(Br)cc(Br)c2)c1	24%	
O=C(CNS(=O)(=O)Cc1ccccc1)Nc1cccc(Br)c1		63%
COc1ccc(S(=O)(=O)NCCNC(=O)Nc2ccc(Cl)c(Cl)c2)cc1	61%	
O=C(CNS(=O)(=O)Cc1ccccc1)OCc1ccccc1		65%
O=C(COc1ccc(Br)cc1)NCC(=O)NC1CCCCC1	53%	99%
C[C@@H](NC(=O)CNS(=O)(=O)Cc1ccccc1)c1ccccc1		85%
Cc1ccc(S(=O)(=O)NCCNC(=O)Nc2ccc(Cl)cc2Cl)cc1	59%	
COc1ccc(S(=O)(=O)NCCCNC(=O)Nc2ccc(Cl)c(Cl)c2)cc1	55%	
Cc1ccc(S(=O)(=O)NCC(=O)NCc2ccc(Br)cc2)cc1		75%
O=C(Cc1cccs1)NNC(=S)NC(=O)Cc1ccccc1	61%	
O=C(Cc1ccccc1)NNC(=S)NC(=O)Cc1ccccc1	41%	
O=C(O)CC(=O)O	54 to 85%	62 to 110%
COc1ccccc1NC(=S)NCCNS(=O)(=O)c1ccc(C)cc1	76%	
O=C(NCCNS(=O)(=O)c1ccc(Br)cc1)Nc1ccc(Cl)c(Cl)c1	49%	
O=C(NCCCNS(=O)(=O)c1ccc(Br)cc1)Nc1ccc(Cl)c(Cl)c1	55%	

SMILES	inhibition [1]	inhibition [2]
COc1cccc(NC(=O)NCCNS(=O)(=O)c2ccc(C)cc2)c1	64%	
O=C(Cc1cc(F)cc(F)c1)NNC(=S)NC(=O)Cc1ccccc1	67%	
O=C(/C=C/c1ccc(-c2ccccc2)cc1)NC(=S)NNC(=O)Cc1cccs1	55%	
COc1cccc(OC)c1/C=C/C(=O)NC(=S)NNC(=O)Cc1ccccc1	24%	
Cc1ccc(S(=O)(=O)NCC(=O)NCc2ccc(Br)cc2F)cc1		67%
COc1cccc(CC(=O)NNC(=S)NC(=O)/C=C/c2cc(Br)cc(Br)c2)c1	31%	
O=C(/C=C/c1cc(Br)cc(Br)c1)NC(=S)NNC(=O)Cc1ccc(F)cc1	49%	
O=C(CCc1ccccc1)NNC(=S)NC(=O)Cc1ccccc1	70%	
COc1ccc(S(=O)(=O)NCC(=O)Nc2cccc(Br)c2)cc1		59%
O=C(/C=C/c1cc(Br)cc(Br)c1)NC(=S)NNC(=O)c1cccs1	52%	
O=C(Cc1c(F)cccc1F)NNC(=S)NC(=O)Cc1ccccc1	74%	
Cc1ccc(S(=O)(=O)NCCNC(=O)Nc2ccc(Cl)c(Cl)c2)cc1	52%	
O=C(Cc1ccc(F)cc1)NNC(=S)NC(=O)Cc1c(F)cccc1F		66%
Cc1ccc(S(=O)(=O)NCC(=O)NNC(=O)Cc2ccc(F)cc2)cc1		60%
O=C(CNS(=O)(=O)c1ccc(Cl)cc1)Nc1ccccc1Br		60%
Cc1ccc(S(=O)(=O)NCC(=O)Nc2cccc([N+](=O)[O-])c2)cc1		62%
O=C(/C=C/c1ccc(F)cc1)NC(=S)NNC(=O)Cc1ccccc1	45%	
O=C(/C=C/c1cc(Br)cc(Br)c1)NC(=S)NNC(=O)c1ccccc1	31%	
Cc1ccc(S(=O)(=O)NCCNC(=O)Nc2ccc(Br)cc2Cl)cc1	57%	
O=C(Cc1ccc(F)cc1)NNC(=S)NC(=O)Cc1ccccc1	0%	
Cc1ccc(S(=O)(=O)NCC(=O)OCc2ccccc2)cc1		84%
O=C(Cc1ccc(F)cc1)NNC(=S)NC(=O)CC1CCCCC1		67%
